Laboratory results: patent US11872313B2, “Prodrug compositions, prodrug nanoparticles, and methods of use thereof” (Washington University, priority 2010, dated 2024)
Entries after “also recorded” stand apart in the source; their conditions may differ.

Key:
[1] = In vitro release of fumagillin dissolved in a lipid membrane; format: physicochemical; settings: FIG. 19A
Excerpt: (§1) FIG. 19A and FIG. 19B depicts two graphs illustrating that fumagillin dissolved in a lipid membrane is stable in vitro but rapidly lost in vivo.

[2] = In vivo release of fumagillin dissolved in a lipid membrane; settings: FIG. 19B
Excerpt: as §1

Vx2 tumor = Vx2 tumor model, angiogenesis MR contrast enhancement; format: in vivo, rabbit; settings: 1.5 T, FIG. 4A

Structure (SMILES)	In vitro release of fumagillin [1]	In vivo release of fumagillin [2]	change in angiogenesis contrast enhancement (Vx2 tumor)
CO[C@@H]1[C@H](OC(=O)/C=C/C=C/C=C/C=C/C(=O)O)CC[C@]2(CO2)[C@H]1[C@@]1(C)O[C@@H]1CC=C(C)C [fumagillin]	sustained over 4 days	rapidly releases in vivo; also recorded: occurs in a matter of minutes	–
CC(=O)O[C@H]1C(=O)[C@@]2(C)[C@H]([C@H](OC(=O)c3ccccc3)[C@]3(O)C[C@H](OC(=O)[C@H](O)[C@@H](NC(=O)c4ccccc4)c4ccccc4)C(C)=C1C3(C)C)[C@]1(OC(C)=O)CO[C@@H]1C[C@@H]2O [non-prodrug paclitaxel, paclitaxel]	–	–	non-significant change
